BindingDB's records for doi:10.7270/Q2NS0S90 (The Scripps Research Institute Molecular Screening Center, 2009)

These molecules were tested against VIM-2 metallo β-lactamase (Pseudomonas aeruginosa, UniProt Q9K2N0) (assay: VIM-2 inhibitor FRET-based artefact check, dose response, artefact control for selective VIM-2 inhibitor project, biochemical, FRET readout, CCF2 substrate (AID 1926)).
`COc1ccc(OC)c(C2C(C(=O)c3ccco3)C(=O)C(=O)N2Cc2cccnc2)c1` (configuration not stated) [2-(2,5-dimethoxyphenyl)-3-(furan-2-carbonyl)-4-hydroxy-1-(pyridin-3-ylmethyl)-2H-pyrrol-5-one] gave an IC50 of 700 nM.
With `O=C1C(=O)N(Cc2cccnc2)C(c2ccccn2)C1C(=O)c1cccs1` (configuration not stated) [3-hydroxy-5-(2-pyridinyl)-1-(3-pyridinylmethyl)-4-(2-thienylcarbonyl)-1,5-dihydro-2H-pyrrol-2-one] the IC50 was 4830 nM.
Work on `COc1ccc(C(=O)C2C(=O)C(=O)N(Cc3ccco3)C2c2cc(OC)ccc2OC)cc1` (configuration not stated) [(4E)-5-(2,5-dimethoxyphenyl)-1-(2-furanylmethyl)-4-[hydroxy-(4-methoxyphenyl)methylidene]pyrrolidine-2,3-dione] yielded an IC50 of 5610 nM.
For `O=C1C(=O)N(Cc2cccnc2)C(c2ccccn2)C1C(=O)c1ccc(F)cc1` (configuration not stated) [(4Z)-4-[(4-fluorophenyl)-hydroxy-methylene]-5-(2-pyridyl)-1-(3-pyridylmethyl)pyrrolidine-2,3-quinone], the IC50 was 941 nM.
`O=C1C(=O)N(Cc2cccnc2)C(c2ccccn2)C1C(=O)c1ccccc1` (configuration not stated) [(4Z)-4-[hydroxy(phenyl)methylene]-5-(2-pyridyl)-1-(3-pyridylmethyl)pyrrolidine-2,3-quinone] showed an IC50 of 2170 nM.
`COc1cc(OC)c(OC)cc1C=NNC(=O)Cc1c(C)[nH][nH]c1=O` [MLS000555854] gave an IC50 of 1460 nM.
`COc1ccc(OC)c(C=NNC(=O)Cc2c(C)[nH][nH]c2=O)c1` [SMR000147372] was tested, and the IC50 was 2130 nM.
